Data on 17 molecules can be found in PMC3325938, “Activity of Clinically Relevant Antimalarial Drugs on Plasmodium falciparum Mature Gametocytes in an ATP Bioluminescence “Transmission Blocking” Assay” (PLoS ONE, 2012).

Usually IC50 stands for the midpoint of a concentration-inhibition curve.

≈ marks a conversion by molar mass, not a printed value. Like-named read-outs stand apart in the source and are kept apart here. Where only a bound is given, the exact number is not on record here.

The subject of data set [1] is P. falciparum stage IV–V gametocytes (3D7HT-GFP strain). Nature of the data set: microbe, parasite or virus in culture. In kind it is cell-based, Plasmodium falciparum. On the procedure: Once purified, gametocytes were counted using a Neubauer chamber. Gametocytes (5×10^4 gametocytes per well) were transferred to a 96-well plate in a final volume of 100 µL, and dilutions of each drug were added (final DMSO concentration 0.5%). Plates were incubated (at 37°C in a 5% CO2 humidified incubator) for 48 h. The ATP level of each well was determined using the BacTiter-Glo™ reagent (Promega) according to manufacturer's recommendations. The BacTiter-Glo™ assay generates a “glow-type” luminescent signal produced by the luciferase reaction, which consists of mono-oxygenation of luciferin catalyzed by luciferase in the presence of Mg2+, ATP, and molecular oxygen.

In data set [2] the test system is P. falciparum asexual forms (3D7A). The experiment in a line: In vitro antiplasmodial activity on asexual stages (uptake of radiolabeled nucleic acid precursor), 3D7A. In kind it is cell-based, Plasmodium falciparum. The following applies: read-out: IC50 Activity against asexual forms (3D7A). On the procedure: (§1) IC50 values were measured as previously reported but all of the tests were done with serum-free cultures (using AlbuMAX II)

Data set [3] relates to P. falciparum asexual forms (3D7HT-GFP). Nature of the data set: In vitro antiplasmodial activity on asexual stages (uptake of radiolabeled nucleic acid precursor), 3D7HT-GFP. The following applies: read-out: IC50 Activity against asexual forms (3D7HT-GFP). It counts as cell-based, Plasmodium falciparum. The protocol:
as §1

A short description of data set [4]: Cytotoxicity, resazurin-based reductase assay. In kind it is cell-based, human. The settings on record: human, HepG2, 48 h exposure, resazurin, mean ± SD, 3–6 independent experiments. The protocol: (§2) Cells were grown and maintained in EMEM (Sigma-Aldrich) supplemented with 2 mM L-glutamine (Sigma-Aldrich) and 10% fetal calf serum (Perbio). […] For cytotoxicity experiments, cells were seeded onto 96-well clear bottom black plates coated with type I collagen (Biocoat, Becton Dickinson) at a cell density of 10000 cells/well.
(§3) The culture medium was as described above, but supplemented with 5% fetal calf serum. Following the 48 h exposure period, a 0.004% resazurin solution was prepared by adding 60 mL of Dulbecco's PBS to each resazurin tablet (VWR International). The tablet was allowed to dissolve by placing the container in a bath maintained at 37°C, protected from light, for approximately 30 minutes. Medium was removed and 200 µL of fresh culture medium and 50 µL of resazurin solution were added to each well. Plates were incubated for a further 1 ½ hours. Cytotoxicity is indicated by decreased reduction of resazurin to its fluorescent product resorufin. The fluorescence was stabilized at room temperature for 15 minutes protected from light. […] Percentages of inhibition were calculated relative to the control wells.
(The colour change of resazurin is a common sign of viable cells or microbes.)

Data set [5] relates to P. falciparum mature gametocytes. The experiment in a line: Microscopic enumeration of gametocytes on Giemsa-stained smears. The following applies: read-out: IC50 gametocytes Microscopy examination. In kind it is cell-based, Plasmodium falciparum. The protocol:
100 µl of the culture (day 15, HT 6%) were plated in each well with the appropriate dilution of drug. 48 h after, 10 µl of each well was used to prepare a thin blood film and stain it with Giemsa. The number of gametocytes per 10,000–15,000 RBCs were counted and compared to the control (no drug, 0.5% DMSO).

Data set [6] deals with gametocytes. Details: method as in PMID 21316401. The following applies: at 1 µM; cited from earlier work.
Another data set deals with HepG2 cells. The experiment in a line: Cytotoxicity, resazurin-based reductase assay. It counts as cell-based, human. On the procedure: as §2, §3
Another data set concerns late gametocytes. Details: method as in PMID 20149239. The following applies: flow cytometry assay; cited from earlier work. (In general: In flow cytometry, cells or beads pass a laser one at a time.)
Data set [7] concerns gametocytes. Further details: method as in PMID 17242150. The following applies: cited from earlier work.
Data set [8] concerns gametocytes. The settings on record: cited from earlier work.
Where [9] appears, read: Plasmodium falciparum, 48 h, read-out: IC50 Activity against mature gametocytes IV–V, ATP bioluminescence, 48 h, 3D7HT-GFP, mean ± SD, 3–6 independent experiments.
Setting [10] is: Plasmodium falciparum, mean ± SD, 3–6 independent experiments, serum-free (AlbuMAX II).
The mark [11] stands for this setting: Plasmodium falciparum, 48 h, read-out: IC50 gametocytes ATP method, mature gametocytes, 48 h drug exposure (Table 1).
Setting [12] is: Plasmodium falciparum, mature gametocytes, 48 h incubation, Giemsa smear counting.

Regarding `CCCCN(CCCC)CC(O)c1cc(Cl)cc2c1-c1ccc(Cl)cc1/C2=C/c1ccc(Cl)cc1` (stereo not drawn) [Lumefantrine], the IC50 in [1] (setting [9]) is more than 50000 nM; in [2] (setting [10]), 3.2 ± 0.14 nM; in data set [3] (Plasmodium falciparum) it was 1.65 ± 0.07 nM. Besides, the concentration for half-maximal inhibition (IC50) at 48 h in [4] (HepG2 cells) is more than 50000 nM.
In the case of `CCCCN(CCCC)CCC(O)c1cc2c(Cl)cc(Cl)cc2c2cc(C(F)(F)F)ccc12` (stereo not drawn) [Halofantrine], the 50% inhibitory concentration (IC50) in [1] (setting [9]) turned out to be 6700 ± 420 nM; in data set [2] (setting [10]), 1.1 ± 0.5 nM; in [3] (Plasmodium falciparum) it was 1.2 ± 0.5 nM. For the same molecule, the IC50 at 48 h in data set [4] (HepG2 cells) is more than 50000 nM.
Turning to `COc1ccc2nc3cc(Cl)ccc3c(Nc3cc(CN4CCCC4)c(O)c(CN4CCCC4)c3)c2n1` [Pyronaridine], the IC50 in data set [1] (setting [9]) was approximately 3250 nM; in [2] (setting [10]) it was 4.5 ± 1.5 nM; in [3] (Plasmodium falciparum), 0.8 ± 0.1 nM. Also, the IC50 at 48 h in data set [4] (HepG2 cells) was determined as 5950 ± 920 nM.
Regarding `C=C[C@H]1C[N@@]2CC[C@H]1C[C@H]2[C@H](O)c1ccnc2ccc(OC)cc12` [Quinine], the values for the half-maximal inhibitory concentration (IC50) in [2] (setting [10]) and in [3] (Plasmodium falciparum) were 66 ± 18 nM and 106 ± 40 nM, respectively. In [4] (HepG2 cells), the half-inhibitory concentration (IC50) at 48 h was more than 50000 nM.
Turning to `C[C@H]1[C@@H](O)O[C@@H]2O[C@@]3(C)CC[C@H]4[C@H](C)CC[C@@H]1[C@@]24OO3` [Dihydroartemisinin], the IC50 stood at 3560 ± 950 nM in data set [1] (setting [9]); 3560 nM in data set [1] (setting [11]); 2470 nM in data set [5] (setting [12]); 2.8 ± 0.7 nM in [2] (setting [10]); 13 ± 3 nM in [3] (Plasmodium falciparum). In [4] (HepG2 cells), this molecule came in with a half-inhibitory concentration (IC50) at 48 h of more than 50000 nM. Also, the inhibition of gametocytes with gametocytes [6] is 70.4%.
In the case of `OC(c1cc(C(F)(F)F)nc2c(C(F)(F)F)cccc12)C1CCCCN1` (stereo not drawn) [Mefloquine], the IC50 in data set [1] (setting [9]) came to 4900 nM; in [1] (read-out: IC50 Activity against mature gametocytes IV–V, ATP bioluminescence, 48 h, 3D7HT-GFP, mean ± SD, 3–6 independent experiments) it was 4700 ± 2100 nM; in data set [2] (setting [10]) it was 26 ± 17 nM; in data set [3] (Plasmodium falciparum) it was 28 ± 1.4 nM. This molecule came in with an IC50 at 48 h in data set [4] (HepG2 cells) of 11000 ± 260 nM. The “selectivity ratio (IC50 in HepG2 cells / IC50 in P. falciparum gametocytes)” value in the data set on HepG2 cells (HepG2 versus mature gametocytes) worked out at 2.34.
With `CCN(CC)CCCC(C)Nc1ccnc2cc(Cl)ccc12` (stereo not drawn) [Chloroquine], the IC50 in data set [1] (setting [9]) was determined as 23500 ± 2660 nM; in data set [1] (setting [11]), 23500 nM; in [5] (Plasmodium falciparum, 48 h) it was 28400 nM; in [2] (Plasmodium falciparum), 6 ± 0.2 nM; in data set [3] (Plasmodium falciparum), 7 ± 2 nM.
Take `CC[C@H]1OC(=O)[C@H](C)[C@@H](O[C@H]2C[C@@](C)(OC)[C@@H](O)[C@H](C)O2)[C@H](C)[C@@H](O[C@@H]2O[C@H](C)C[C@H](N(C)C)[C@H]2O)[C@](C)(O)C[C@@H](C)CN(C)[C@H](C)[C@@H](O)[C@]1(C)O` [Azythromycin]: the IC50 in [1] (setting [9]) was 28400 ± 640 nM; in data set [2] (Plasmodium falciparum) it was more than 10000 nM; in data set [3] (Plasmodium falciparum), more than 10000 nM. This molecule also returned an IC50 at 48 h in data set [4] (HepG2 cells) of more than 50000 nM.
With `CCN(CC)Cc1ccc(Nc2ccnc3cc(Cl)ccc23)cc1O` [Isoquine], the IC50 came out at 28500 ± 2120 nM in data set [1] (setting [9]), 9 ± 1.6 nM in [2] (setting [10]) and 4.4 ± 3.2 nM in data set [3] (Plasmodium falciparum). The IC50 at 48 h in data set [4] (HepG2 cells) is 17100 ± 6300 nM.
On to `C[C@@H]1CC[C@H]2[C@@H](C)C(=O)O[C@@H]3O[C@@]4(C)CC[C@@H]1[C@]32OO4` [artemisinin], for which the half-inhibitory concentration (IC50) in the data set on late gametocytes was 1000 nM.
For the molecule `C[C@@H]1C[C@@H]([C@H](O)CC2CC(=O)NC(=O)C2)C(=O)[C@@H](C)C1` [Cycloheximide], the IC50 was determined as 6230 ± 2460 nM in [1] (Plasmodium falciparum, 48 h, read-out: IC50 Activity against mature gametocytes IV–V); 198 ± 1.7 nM in data set [2] (Plasmodium falciparum); 194 ± 7.7 nM in [3] (Plasmodium falciparum). For the same molecule, in data set [4], the IC50 at 48 h stood at 2950 ± 350 nM.
Consider `COc1cc(NC(C)CCCN)c2ncccc2c1` (stereo not drawn) [Primaquine], for which the IC50 is 20900 ± 4650 nM in [1] (setting [9]); 20900 nM in data set [1] (setting [11]); 87900 nM in data set [5] (setting [12]); more than 10000 nM in [2] (setting [10]); more than 10000 nM in data set [3] (Plasmodium falciparum). This molecule also yielded a 50% inhibitory concentration (IC50) at 48 h in data set [4] of more than 50000 nM.
Turning to `CN(C)c1ccc2nc3ccc(=[N+](C)C)cc-3sc2c1` [Methylene blue], the IC50 was found to be 490 ± 160 nM in data set [1] (setting [9]); 490 nM in [1] (setting [11]); 760 nM in [5] (setting [12]); 11 ± 8 nM in data set [2] (setting [10]); 10 ± 1.8 nM in data set [3] (Plasmodium falciparum). In [4] (HepG2 cells), the half-inhibitory concentration (IC50) at 48 h stood at 6520 ± 1310 nM.
As for `C[C@H]1[C@H](OC(=O)CCC(=O)O)O[C@@H]2O[C@@]3(C)CC[C@H]4[C@H](C)CC[C@@H]1[C@@]24OO3` [Artesunate], the half-inhibitory concentration (IC50) in [1] (setting [9]) is 10800 ± 3700 nM; in data set [1] (setting [11]) it was 10800 nM; in data set [5] (setting [12]), 2260 nM; in [2] (setting [10]), 37 ± 25 nM; in data set [3] (Plasmodium falciparum), 54 ± 30 nM; in the data set with gametocytes [7], 108 nM. This molecule also returned an IC50 at 48 h in [4] (HepG2 cells) of more than 50000 nM. Moreover, the IC50 on gametocytes with gametocytes [8] is reported as 0.1 ng/mL (≈ 0.26 nM).
For the molecule `CC[C@H](C)[C@H](NC(=O)[C@H]([C@@H](C)CC)N(C)C(C)=O)C(=O)N[C@H](C(=O)N[C@@H](CC(C)C)C(=O)[C@@]1(C)CO1)[C@@H](C)O` [Epoxomicin], the IC50 came out at 0.42 ± 0.11 nM in data set [1] (ATP bioluminescence, 48 h, 3D7HT-GFP, mean ± SD, 3–6 independent experiments, read-out: IC50 Activity against mature gametocytes IV–V); 0.42 nM in data set [1] (mature gametocytes, 48 h drug exposure (Table 1), read-out: IC50 gametocytes ATP method); 5.2 nM in data set [5] (mature gametocytes, 48 h incubation, Giemsa smear counting); 8 ± 1 nM in [2]; 9.8 ± 1.7 nM in [3] (mean ± SD, 3–6 independent experiments, serum-free (AlbuMAX II)); 3 ± 0.5 nM with HepG2 cells (HepG2, 48 h exposure, resazurin, mean ± SD, 3–6 independent experiments).
Turning to `CCc1nc(N)nc(N)c1-c1ccc(Cl)cc1` [Pyrimethamine], the “effect on mature gametocytes (in words)” value in data set [1] (3D7HT-GFP line resistant to drugs acting on DHFR) is “did not have any effect”. In addition, the IC50 is more than 50000 nM in data set [1] (setting [9]) and 33700 ± 6720 nM in data set [3] (Plasmodium falciparum). In [4] (HepG2 cells), the half-inhibitory concentration (IC50) at 48 h is more than 50000 nM.
In the case of `O=C1C(O)=C([C@H]2CC[C@H](c3ccc(Cl)cc3)CC2)C(=O)c2ccccc21` [Atovaquone], the half-maximal inhibitory concentration (IC50) came to 16100 ± 2120 nM in [1] (setting [9]), 0.7 ± 0.4 nM in data set [2] (setting [10]) and 1.8 ± 0.2 nM in data set [3] (Plasmodium falciparum). This molecule also came in with a concentration for half-maximal inhibition (IC50) at 48 h in [4] (HepG2 cells) of more than 40000 nM. The “cytotoxic effects (in words)” value with HepG2 cells (at the maximum solubility in culture media) is “No cytotoxic effects were detected”.
